The text below walks through data of patent US4963565A, “In vivo treatment of mycobacterial infections with 6-cyclo octylamino-5,8-quinoline quinone” (priority 1986, dated 1990).

One test relates to Mycobacterium leprae. As to the kind of experiment: Inhibitory activity against Mycobacterium leprae in the macrophage model (3H thymidine uptake). Format: cell-based, M. leprae (in human monocyte derived macrophages). The text has this:
The effect of CQQ on Mycobacterium leprae, the causative agent for leprosy, was studied using monocyte derived macrophages obtained from human volunteers.
Blood from a healthy volunteer was drawn and monocytes were removed and cultured to the macrophage stage. This required about 7 days. The macrophages were then exposed to M. leprae bacilli obtained from biopsy specimens of leprosy patients. One sample was exposed to CQQ, while other samples were exposed to DDS (diaminodiphenyl sulphone), the standard antileprosy drug, or rifampin, at various concentrations. Macrophages were exposed to radiolabelled tritium (^3 H) labeled thymidine, and its uptake was measured using a liquid scintillation counter. A control model of M. leprae exposed macrophages, which was not treated was used as well. The uptake of thymidine is a measure of antimycobacterial activity.

The subject of a further test is M. intracellulare. As to the kind of experiment: In vitro activity against serovars of M. intracellulare, radiometric (Bactec) method. Type of test: cell-based. The note with it: comparison with CQQ; no data shown. How it is done: A study of the effect of CQQ on different serovars of M. intracellulare in vitro was performed using the radiometric (Bactec) method. Maximum growth index (GI) of 999 was determined (for control models) in terms of the number of days necessary for the culture to reach this stage. GI is measured using the special instrument which reads the amount of ^14 C labelled CO2 liberated from the strains using the ^14 C labelled substrates.

For `Nc1ccc(S(=O)(=O)c2ccc(N)cc2)cc1` [DDS, diaminodiphenyl sulphone, reference compound], the “Counts per minute (3H thymidine uptake)” value in the test on Mycobacterium leprae (Sample I, 10 NG/ML) is 84 COUNTS PER MINUTE; in the test on Mycobacterium leprae (Sample II, DDS 10 NG/ML), 78 COUNTS PER MINUTE; in the test with Mycobacterium leprae (Sample III, DDS 10 NG/ML) it was 84 COUNTS PER MINUTE.

In the case of `CO[C@H]1/C=C/O[C@@]2(C)Oc3c(C)c(O)c4c(O)c(c(/C=N/N5CCN(C)CC5)c(O)c4c3C2=O)NC(=O)/C(C)=C\C=C\[C@H](C)[C@H](O)[C@@H](C)[C@@H](O)[C@@H](C)[C@H](OC(C)=O)[C@@H]1C` [rifampin, reference compound], the “Effectiveness on M. intracellulare strains” value in the test with M. intracellulare was “only effective on a few strains”. In addition, the “Counts per minute (3H thymidine uptake)” value in the test on Mycobacterium leprae (Sample I, 3 NG/ML) turned out to be 82 COUNTS PER MINUTE; with Mycobacterium leprae (Sample II, 3 NG/ML), 80 COUNTS PER MINUTE; with Mycobacterium leprae (Sample III, 3 NG/ML), 82 COUNTS PER MINUTE.
